Source: patent US8399482B2, “6-substituted isoquinolines and isoquinolinones” (Sanofi, priority 2008, dated 2013)

Assays:
Type in all cases: biochemical
[1] = target: T1, human recombinant ROCK II (Homo sapiens, UniProt O75116); assay: Determination of Rho kinase inhibition (ROCK II, Caliper peptide phosphorylation assay); details: respective form (salt or free base) as obtained in the examples, 60 min at 32° C.
T1 construct: recombinant human ROCK-II residues 11-552; His6 (N); purchased Millipore GmbH, Schwalbach, Germany
T1 sequence (O75116 11-552): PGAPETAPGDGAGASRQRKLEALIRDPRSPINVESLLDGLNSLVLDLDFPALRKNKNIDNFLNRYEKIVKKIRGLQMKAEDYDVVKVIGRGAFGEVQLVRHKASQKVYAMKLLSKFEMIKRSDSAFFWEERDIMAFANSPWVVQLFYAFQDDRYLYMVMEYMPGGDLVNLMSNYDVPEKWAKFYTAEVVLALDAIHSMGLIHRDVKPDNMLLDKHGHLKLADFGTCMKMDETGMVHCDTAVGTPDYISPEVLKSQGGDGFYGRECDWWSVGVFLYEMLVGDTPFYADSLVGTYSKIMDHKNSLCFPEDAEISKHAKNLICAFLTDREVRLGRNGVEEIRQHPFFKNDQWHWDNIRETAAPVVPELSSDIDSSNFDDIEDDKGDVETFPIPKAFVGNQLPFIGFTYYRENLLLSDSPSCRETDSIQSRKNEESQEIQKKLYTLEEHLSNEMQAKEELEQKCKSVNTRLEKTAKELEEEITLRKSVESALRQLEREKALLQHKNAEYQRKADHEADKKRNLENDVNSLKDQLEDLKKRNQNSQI
Experimental: To measure Rho-kinase inhibition, IC50 values were determined according to the following protocol:
Active human recombinant ROCK II (N-terminal His6-tagged recombinant human ROCK-II residues 11-552) was purchased from Millipore GmbH, Schwalbach, Germany. The peptide substrate, Fluorescein-[…]-COOH, was obtained from JPT Peptide Technologies, Berlin, Germany. Adenosine-5′-triphosphate (ATP), bovine serum albumine (BSA), dimethylsulphoxide (DMSO), 4-(2-hydroxyethyl)piperazine-1-ethanesulfonic acid (Hepes), Brij-35, dithiothreitol (DTT) and Pluronic F-68 were purchased from Sigma-Aldrich, Munich, Germany. Tris(hydroxymethyl)-aminomethane (Tris), magnesium chloride, NaOH, 1M HCl and EDTA were obtained from Merck Biosciences, Darmstadt, Germany. “Complete” protease inhibitor was from Roche Diagnostics, Mannheim, Germany. Test compounds were diluted to the appropriate concentrations in buffer 1 (25 mM Tris-HCl, pH 7.4, 5 mM MgCl2, 2 mM DTT, 0.02% (w/v) BSA, 0.01% Pluronic F-68 and 3% DMSO). The ROCK II enzyme was diluted to a concentration of 100 ng/mL in buffer 2 (25 mM Tris-HCl, pH 7.4, 5 mM MgCl2, 2 mM DTT and 0.02% (w/v) BSA). The peptide substrate and ATP were diluted to concentrations of 3 μM and 120 μM, respectively, in the buffer 2. Two μl of the compound solution were mixed with 2 μl of the diluted enzyme in a 384-well small volume microtiter plate (Greiner, Bio-One, Frickenhausen, Germany), and the kinase reaction was initiated by addition of 2 μl of the solution containing peptide substrate and ATP. After 60 min incubation at 32° C., the reaction was stopped by addition of 20 μl of a solution containing 100 mM Hepes-NaOH, pH 7.4, 0.015% (v/v) Brij-35, 45 mM EDTA and 0.227% chip coating reagent 1 (Caliper Lifescience Inc, Hopkinton, Mass.). Phosphorylation of the substrate peptide was then detected on a Caliper 3000 instrument essentially as described by Pommereau et al (J. Biomol. Screening 2004, 9(5), 409-416). Separation conditions were as follows: Pressure −1.3 psi, upstream voltage −1562 V, downstream voltage −500 V, sample sip time 200 ms. Positive controls (buffer 1 instead of compound) and negative controls (buffer 1 instead of compound and buffer 2 instead of ROCK II) were run in parallel on each plate.
The following products/compounds were tested in said assay by using the respective form (salt or free base) obtained as in the examples described above and the following activities were measured

recombinant human PKA = target: T2, recombinant human PKA (Homo sapiens, UniProt P17612); assay: Determination of Protein Kinase A inhibition (selectivity); details: from IC50 values
T2 construct: recombinant human PKA (residues 1-351, N-terminal His-tag); His-tag (N); purchased Invitrogen, Karlsruhe, Germany
Experimental: (§1) 2) Determination of Protein Kinase a and Protein Kinase G Inhibition
(§2) To measure PKA and PKG1-beta inhibition, IC50 values were determined according to the following protocol:
(§3) Active recombinant human PKG1-beta (full-length, with N-terminal His-tag) was purchased from Millipore GmbH, Schwalbach, Germany. Active recombinant human PKA (residues 1-351, N-terminal His-tag) was obtained from Invitrogen, Karlsruhe, Germany. The peptide substrate, Fluorescein-[…]-COOH, was obtained from JPT Peptide Technologies, Berlin, Germany. Adenosine-5′-triphosphate (ATP), bovine serum albumine (BSA), dimethylsulphoxide (DMSO), 4-(2-Hydroxyethyl)piperazine-1-ethanesulfonic acid (Hepes), Brij-35, dithiothreitol (DTT) and Pluronic F-68 were purchased from Sigma-Aldrich, Munich, Germany. Tris(hydroxymethyl)-aminomethane (Tris), magnesium chloride, NaOH, 1M HCl and EDTA were obtained from Merck Biosciences, Darmstadt, Germany. “Complete” protease inhibitor was from Roche Diagnostics, Mannheim, Germany. Test compounds were diluted to the appropriate concentrations in buffer 1 (25 mM Tris-HCl, pH 7.4, 5 mM MgCl2, 2 mM DTT, 0.02% (w/v) BSA, 0.01% Pluronic F-68 and 3% DMSO). PKG1-beta and PKA were diluted to concentrations of 150 ng/ml and 30 ng/ml, respectively, in buffer 2. The peptide substrate and ATP were diluted to concentrations of 3 μM and 120 μM, respectively, in the buffer 2. Two μl of the compound solution were mixed with 2 μl of the diluted enzyme in a 384-well small volume microtiter plate (Greiner, Bio-One, Frickenhausen, Germany), and the kinase reaction was initiated by addition of 2 μl of the solution containing peptide substrate and ATP. After 60 min incubation at 32° C., the reaction was stopped by addition of 20 μl of a solution containing 100 mM Hepes-NaOH, pH 7.4, 0.015% (v/v) Brij-35, 45 mM EDTA and 0.227% chip coating reagent 1 (Caliper Lifescience Inc, Hopkinton, Mass.). Phosphorylation of the substrate peptide was then detected on a Caliper 3000 instrument essentially as described by Pommereau et al (J. Biomol. Screening 9(5), 409-416, 2004). Separation conditions were as follows: Pressure −1.3 psi, upstream voltage −1562 V, downstream voltage −500 V, sample sip time 200 ms, Positive controls (buffer 1 instead of compound) and negative controls (buffer 1 instead of compound and buffer 2 instead of kinase solution) were run in parallel on each plate. The following products/compounds were tested in said assay by using the respective form (salt or free base) obtained as in the examples described above and the following activities were measured.

[2] = target: T3, recombinant human PKG1-beta (Homo sapiens, UniProt Q13976); assay: Determination of Protein Kinase G inhibition (selectivity); details: from IC50 values
T3 construct: PKG1-beta (full-length, with N-terminal His-tag); His-tag (N); purchased Millipore GmbH, Schwalbach, Germany
T3 sequence (Q13976 1-686 isoform Q13976-2): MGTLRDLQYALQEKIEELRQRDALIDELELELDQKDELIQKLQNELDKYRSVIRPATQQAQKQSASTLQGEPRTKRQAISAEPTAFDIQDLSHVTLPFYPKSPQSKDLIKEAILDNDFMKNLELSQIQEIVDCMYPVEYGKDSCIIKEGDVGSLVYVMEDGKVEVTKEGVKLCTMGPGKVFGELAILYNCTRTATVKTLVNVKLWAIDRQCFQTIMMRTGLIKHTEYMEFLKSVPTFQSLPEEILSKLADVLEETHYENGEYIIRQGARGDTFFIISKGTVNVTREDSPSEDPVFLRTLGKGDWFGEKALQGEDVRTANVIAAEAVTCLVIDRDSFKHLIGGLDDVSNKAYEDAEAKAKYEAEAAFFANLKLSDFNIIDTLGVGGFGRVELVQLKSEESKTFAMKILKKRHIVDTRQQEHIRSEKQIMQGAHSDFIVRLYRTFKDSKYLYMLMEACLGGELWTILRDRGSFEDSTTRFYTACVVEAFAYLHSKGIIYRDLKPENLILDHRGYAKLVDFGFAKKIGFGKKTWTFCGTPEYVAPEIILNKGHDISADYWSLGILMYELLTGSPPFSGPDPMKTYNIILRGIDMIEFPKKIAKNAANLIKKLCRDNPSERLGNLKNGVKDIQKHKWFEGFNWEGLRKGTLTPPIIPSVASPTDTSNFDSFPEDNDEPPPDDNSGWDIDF
Experimental: as §1, §2, §3

IC50 [1] | Selectivity against PKA (recombinant human PKA) | Selectivity against PKG [2] | Compound
10 to 100 nM | >10 fold | >10 fold | CCC(N)C1(CC2CC2)CCC(Oc2cc3cc[nH]c(=O)c3cc2Cl)CC1 (single isomer, unassigned) [Example 13, 6-[4-(1-Amino-propyl)-4-cyclopropyl-methyl-cyclohexyl-oxy]-7-chloro-2H-isoquinolin-1-one]
≤ 10 nM | >1000 fold | >100 fold | CCCC(N)C1(CC2CC2)CCC(Oc2cc3cc[nH]c(=O)c3cc2Cl)CC1 (single isomer, unassigned) [Example 14, 6-[4-(1-Amino-butyl)-4-cyclopropylmethyl-cyclohexyloxy]-7-chloro-2H-isoquinolin-1-one]
10 to 100 nM | >10 fold | >10 fold | CCCC(N)C1(CC2CC2)CCC(Oc2cc3cc[nH]c(=O)c3cc2Cl)CC1 (single isomer, unassigned) [Example 15, 6-[4-(1-Amino-butyl)-4-cyclopropylmethyl-cyclohexyloxy]-7-chloro-2H-isoquinolin-1-one]
≤ 10 nM | >300 fold | >300 fold | NC(C1CC1)C1(CC2CC2)CCC(Oc2cc3cc[nH]c(=O)c3cc2Cl)CC1 (single isomer, unassigned) [Example 16, 6-[4-(Amino-cyclopropyl-methyl)-4-cyclopropylmethyl-cyclohexyloxy]-7-chloro-2H-isoquinolin-1-one]
10 to 100 nM | >10 fold | >10 fold | NC(C1CC1)C1(CC2CC2)CCC(Oc2cc3cc[nH]c(=O)c3cc2Cl)CC1 (single isomer, unassigned) [Example 17, 6-[4-(Amino-cyclopropyl-methyl)-4-cyclopropylmethyl-cyclohexyloxy]-7-chloro-2H-isoquinolin-1-one]
≤ 10 nM | >300 fold | >300 fold | CC(C)C(N)C1(CC2CC2)CCC(Oc2cc3cc[nH]c(=O)c3cc2Cl)CC1 (single isomer, unassigned) [Example 18, 6-[4-(1-Amino-2-methyl-propyl)-4-cyclopropylmethyl-cyclohexyloxy]-7-chloro-2H-isoquinolin-1-one]
10 to 100 nM | >1000 fold | >300 fold | CCC(N)C1(COC(C)C)CCC(Oc2cc3cc[nH]c(=O)c3cc2Cl)CC1 (single isomer, unassigned) [Example 19, 6-[4-(1-Amino-propyl)-4-isopropoxymethyl-cyclohexyloxy]-7-chloro-2H-isoquinolin-1-one]
10 to 100 nM | >300 fold | >100 fold | CCC(N)C1(C2CCC2)CCC(Oc2cc3cc[nH]c(=O)c3cc2Cl)CC1 (single isomer, unassigned) [Example 22, 6-[4-(1-Amino-propyl)-4-cyclobutyl-cyclohexyloxy]-7-chloro-2H-isoquinolin-1-one]
100 to 1000 nM | >10 fold | >10 fold | CCC(N)C1(C2CCC2)CCC(Oc2cc3cc[nH]c(=O)c3cc2Cl)CC1 (single isomer, unassigned) [Example 23, 6-[4-(1-Amino-propyl)-4-cyclobutyl-cyclohexyloxy]-7-chloro-2H-isoquinolin-1-one]

Compound | IC50 [1] | Selectivity against PKA (recombinant human PKA) | Selectivity against PKG [2]
CC(N)C1(C2CCC2)CCC(Oc2cc3cc[nH]c(=O)c3cc2Cl)CC1 (single isomer, unassigned) [Example 21, 6-[4-(1-Amino-ethyl)-4-cyclobutyl-cyclohexyloxy]-7-chloro-2H-isoquinolin-1-one] | 10 to 100 nM | >300 fold | >100 fold
NC(c1ccccc1)C1(C2CCCC2)CCC(Oc2cc3cc[nH]c(=O)c3cc2Cl)CC1 (single isomer, unassigned) [Example 25, 6-[4-(Amino-phenyl-methyl)-4-cyclopentyl-cyclohexyloxy]-7-chloro-2H-isoquinolin-1-one] | 10 to 100 nM | >300 fold | >100 fold
